Results as given in ChEMBL document CHEMBL1201862, “PubChem BioAssay data set” (2004).
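Method: 48-hour compound exposure of cells in 96-well plates, five concentrations, linear interpolation of endpoints. The concentration for 50% growth inhibition is given as GI50.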 Active and inactive are the calls of the source. Cut-off read from the data, not from the text of the source: active = GI50 up to about 1.1 µM and inactive = higher.

How the values were obtained:
Assay in all cases: NCI anticancer screen, dose series, 48 h
DMS-114 = system: DMS-114
DMS-273 = system: DMS-273
HOP-18 = system: HOP-18
KM-20L2 = system: KM-20L2
LXFL 529 = system: LXFL 529
M19-MEL = system: M19-MEL
SNB-78 = system: SNB-78
XF498 = system: XF498
RXF 631 = system: RXF 631

Structure (SMILES)	GI50 (DMS-114)	GI50 (DMS-273)	GI50 (HOP-18)	GI50 (KM-20L2)	GI50 (LXFL 529)	GI50 (M19-MEL)	GI50 (SNB-78)	GI50 (XF498)	GI50 (RXF 631)
CP(=O)(CCSc1ccccc1)c1ccccc1 (configuration not stated)	> 100 µM (inactive)	> 100 µM (inactive)	> 100 µM (inactive)	> 100 µM (inactive)	> 100 µM (inactive)	> 100 µM (inactive)	> 100 µM (inactive)	> 100 µM (inactive)	
O=C(CSc1nnc(Cc2ccccc2)o1)Nc1ccc([N+](=O)[O-])cc1	22.4 µM (inactive)	> 100 µM (inactive)		> 100 µM (inactive)	78.2 µM (inactive)	> 100 µM (inactive)	> 100 µM (inactive)		
N=C(N)N/N=C(/c1nc2ccc([N+](=O)[O-])cc2[nH]c1=O)C(O)c1ccc([N+](=O)[O-])cc1 (configuration not stated)	8.28 µM (inactive)	55.7 µM (inactive)		18 µM (inactive)	30.8 µM (inactive)	> 100 µM (inactive)	> 100 µM (inactive)	40 µM (inactive)	> 100 µM (inactive)
CSC(C1c2ccccc2N(C)c2[nH]c(=O)n(C)c(=O)c21)S(=O)(=O)c1ccc(C)cc1 (configuration not stated)	> 100 µM (inactive)	43.5 µM (inactive)	> 100 µM (inactive)		56.4 µM (inactive)	40.3 µM (inactive)	> 100 µM (inactive)	> 100 µM (inactive)	
O=C1C2Nc3ccccc3SC2C(=O)N1c1ccccc1C(F)(F)F (configuration not stated)	40.7 µM (inactive)		26.4 µM (inactive)		33.7 µM (inactive)	46.9 µM (inactive)	15.2 µM (inactive)	19.6 µM (inactive)	
CCOC(=O)/C(=C\c1cccs1)P(=O)(OCC)OCC	21.5 µM (inactive)	34.6 µM (inactive)	31.3 µM (inactive)	21.9 µM (inactive)	18.6 µM (inactive)	21.5 µM (inactive)	49.3 µM (inactive)		55.8 µM (inactive)
CC(=O)OC1[C@H]2c3cc4c(cc3CN3CCC(C[C@@H]1OC(C)=O)C23)OCO4 (some centres not stated)	> 75 µM (inactive)	> 75 µM (inactive)		> 75 µM (inactive)	> 75 µM (inactive)	> 75 µM (inactive)	> 75 µM (inactive)		
FC(F)(F)c1nc(-c2ccccc2)oc1Sc1oc(-c2ccccc2)nc1C(F)(F)F	40.3 µM (inactive)	66.7 µM (inactive)	73.6 µM (inactive)	> 100 µM (inactive)	> 100 µM (inactive)	> 100 µM (inactive)	> 100 µM (inactive)	34.8 µM (inactive)	
COc1ccc(NCC#N)cc1	> 100 µM (inactive)	> 100 µM (inactive)	> 100 µM (inactive)	> 100 µM (inactive)	> 100 µM (inactive)	> 100 µM (inactive)	> 100 µM (inactive)	> 100 µM (inactive)	> 100 µM (inactive)
Cn1cc2c(n1)c(N/N=C/c1ccccc1)nn1nnnc21	> 100 µM (inactive)	> 100 µM (inactive)	> 100 µM (inactive)	> 100 µM (inactive)	> 100 µM (inactive)	> 100 µM (inactive)	> 100 µM (inactive)	> 100 µM (inactive)	> 100 µM (inactive)
O=c1c2ccccc2nc(-c2ccccc2)n1NC(=S)Nc1cccc(Cl)c1	67.3 µM (inactive)	66.4 µM (inactive)	> 100 µM (inactive)		> 100 µM (inactive)	> 100 µM (inactive)			
CC1(C)OC(=O)C(C#N)=C1/C=C/c1coc2ccc(Cl)cc2c1=O	34.8 µM (inactive)	35.1 µM (inactive)		42.2 µM (inactive)	27.9 µM (inactive)	41.2 µM (inactive)	33.8 µM (inactive)		38.8 µM (inactive)
COc1cccc(NC(=O)CC(=O)N2NC(c3ccccc3)C(/N=N/c3cccc(C(=O)O)c3)C2=O)c1 (configuration not stated)	> 100 µM (inactive)		< 0.01 µM (active)	> 100 µM (inactive)	85.1 µM (inactive)	> 100 µM (inactive)	> 100 µM (inactive)	> 100 µM (inactive)	
O=[N+]([O-])c1ccc(-c2ccc(-c3csc(Nc4ccccc4)n3)o2)cc1	25.7 µM (inactive)	23 µM (inactive)	15.8 µM (inactive)	21 µM (inactive)	18.6 µM (inactive)	29.9 µM (inactive)	8.17 µM (inactive)	18.4 µM (inactive)	
[O-]c1c2c(nn1-c1ccc(Cl)cc1)c1ccccc1c[n+]2Cc1ccccc1	> 100 µM (inactive)	> 100 µM (inactive)	> 100 µM (inactive)	> 100 µM (inactive)	> 100 µM (inactive)	> 10 µM (inactive)	> 100 µM (inactive)	35 µM (inactive)	
COc1cc([C@@H]2c3cc4c(cc3[C@@H](NC(=O)c3ccc(C#N)cc3)C3COC(=O)[C@@H]32)OCO4)cc(OC)c1O (some centres not stated)	0.315 µM (active)	0.0276 µM (active)	55.1 µM (inactive)	0.785 µM (active)	4.61 µM (inactive)	1.26 µM (inactive)	6.03 µM (inactive)		
O=C1[C@@H]2C(c3ccccc3[N+](=O)[O-])=[N+](c3ccccc3)O[C@@H]2C(=O)N1c1ccc(Cc2ccc(N3C(=O)[C@H]4C(c5ccccc5[N+](=O)[O-])=[N+](c5ccccc5)O[C@H]4C3=O)cc2)cc1	> 100 µM (inactive)	> 100 µM (inactive)	85.9 µM (inactive)	> 100 µM (inactive)	94.6 µM (inactive)	> 100 µM (inactive)	> 100 µM (inactive)		
COC(=O)NN=C1C(C)(C)C(=O)C1(C)C		> 100 µM (inactive)		> 100 µM (inactive)	> 100 µM (inactive)		> 100 µM (inactive)	> 100 µM (inactive)	> 100 µM (inactive)
O=C(Nc1ccc(Cl)c(C(F)(F)F)c1)C(=O)C(C(=O)/C=C/c1ccccc1)C1OC(=O)c2ccccc21 (configuration not stated)	66.5 µM (inactive)	> 100 µM (inactive)	> 100 µM (inactive)	> 100 µM (inactive)	57.4 µM (inactive)	84.9 µM (inactive)	64 µM (inactive)	> 100 µM (inactive)	
CS/C(=C(\S)c1ccccc1)c1ccccc1	> 100 µM (inactive)	> 100 µM (inactive)	> 100 µM (inactive)	> 31.6 µM (inactive)	> 100 µM (inactive)	> 100 µM (inactive)	> 100 µM (inactive)	> 100 µM (inactive)	> 100 µM (inactive)
c1ccc(N2CCN(CCN3CCc4c([nH]c5ccccc45)C3c3cccnc3)CC2)cc1 (configuration not stated)	> 100 µM (inactive)	> 100 µM (inactive)	> 100 µM (inactive)	> 100 µM (inactive)	> 100 µM (inactive)	> 100 µM (inactive)	56.8 µM (inactive)	89.9 µM (inactive)	39.5 µM (inactive)
CCN(CC)CCC(=O)O[C@H]1CC[C@H](CC(C)[C@H]2CC(=O)C(C)C=C(C)[C@H](OC(=O)CCN(CC)CC)C(OC)C(=O)[C@@H](C)CC(C)/C=C/C=C/C=C(C)C(OC)CC3CC[C@H](C)[C@](O)(O3)C(=O)C(=O)N3CCCCC3C(=O)O2)CC1OC (some centres not stated)		0.361 µM (active)		1.6 µM (inactive)	< 0.01 µM (active)		< 0.01 µM (active)		0.406 µM (active)
Fc1cccc(F)c1C1SCc2nc3ccccc3n21 (configuration not stated) [THIAZOLOBENZIMIDAZOLE]		50.2 µM (inactive)	53.6 µM (inactive)	> 100 µM (inactive)	60.4 µM (inactive)	44.9 µM (inactive)	63.5 µM (inactive)	52 µM (inactive)	
O=C(/C=N/c1ccccc1C(=O)[O-])c1cccs1.O=C(/C=N/c1ccccc1C(=O)[O-])c1cccs1.[Zn+2]		> 100 µM (inactive)	> 100 µM (inactive)	> 100 µM (inactive)					
C/C(=N/NC(N)=S)C(CN1CCOCC1)C(C1=C(O)c2ccccc2OC1)c1ccccc1 (configuration not stated)			> 100 µM (inactive)	> 100 µM (inactive)	> 100 µM (inactive)	> 100 µM (inactive)	> 100 µM (inactive)	> 100 µM (inactive)	
